Patent US20160081980A1, “Composition Comprising AMD3100 For Preventing or Treating Bone Diseases” (KYUNGPOOK NATIONAL UNIVERSITY INDUSTRY-ACADEMIC COOPERATION …, priority 2013, published 2016)

Legend:
[1] = test system: SDF-1; settings: AMD3100 5 mg/kg/day intraperitoneal for 21 days vs PBS
[2] = test system: Osteocalcin, PTHR1, Osterix, Runx2; settings: bone marrow of OVX and control mice, real-time PCR; FIG. 4
[3] = test system: OVX mice; settings: AMD3100-treated OVX mice compared to PBS-treated OVX mice, 21 days; FIG. 5
Method: 12-week-old female C57BL/6 mice were purchased from Jackson Laboratory (Bar Harbor, ME). Mice were housed in an air-conditioned room with a 12 hour light/dark cycle at a temperature of 22±2° C. and humidity of 45-65%, and given free access to food and tap water. Mice underwent either sham surgery or ovariectomy (OVX) at 12 weeks of age and were sacrificed at 16 weeks of age. One week after surgery, sham-operated and OVX mice received an intraperitoneal injection with AMD3100 (Sigma-Aldrich #A5602, St. Louis, Mo., sigma Aldrich.com) (5 mg/kg/day) or PBS for 21 days. At the end of treatment, the mice were sacrificed, and blood samples were collected by cardiac puncture for the colony-forming unit (CFU) assay.
Single-cell suspensions of peripheral blood (PB) after ammonium chloride lysis were plated into 35 mm dishes (3×10^5 cells/plate) with MethoCult GF M3434 (StemCell Technologies). Hematopoietic colonies were counted and scored after incubation for 12-14 days at 37° C., 5% CO2, as instructed by the manufacturer.
In order to determine whether AMD3100 may mobilize HSPCs from bone marrow in OVX mice, AMD3100 or PBS was administered to OVX mice for 21 days.

[4] = test system: OVX mice; settings: AMD3100-treated vs PBS-treated OVX mice; did not reach statistical significance; FIGS. 6 & 7
Method: 12-week-old female C57BL/6 mice were purchased from Jackson Laboratory (Bar Harbor, ME). Mice were housed in an air-conditioned room with a 12 hour light/dark cycle at a temperature of 22±2° C. and humidity of 45-65%, and given free access to food and tap water. Mice underwent either sham surgery or ovariectomy (OVX) at 12 weeks of age and were sacrificed at 16 weeks of age. One week after surgery, sham-operated and OVX mice received an intraperitoneal injection with AMD3100 (Sigma-Aldrich #A5602, St. Louis, Mo., sigma Aldrich.com) (5 mg/kg/day) or PBS for 21 days. At the end of treatment, the mice were sacrificed, and blood samples were collected by cardiac puncture for the colony-forming unit (CFU) assay. Femora were removed, fixed with 4% paraformaldehyde in phosphate-buffered physiological saline solution (pH 7.4) for 16 hours, and then stored at 4° C. in 80% ethanol for measurement of bone density.
Bone marrow cells from the femurs and tibias were collected by flushing with 20 ml PBS passed through a 25-gauge needle. After centrifugation at 1,300 rpm for 5 minutes, the supernatant was removed and the cells were then washed by ammonium chloride lysis. […]

[5] = test system: OVX mice; settings: AMD3100-treated vs PBS-treated OVX mice
[6] = test system: BM-derived macrophages; settings: RANKL 100 ng/ml, M-CSF 30 ng/ml, AMD3100 25 mg/ml for 3 days; FIG. 10
Method: Total RNA was extracted from BM cultures treated with or without RANKL in the presence or absence of AMD3100 (25 g/ml) for 3 days. […] RNA samples were extracted from whole bone marrow (BM) cells of four individual animals per group and isolated from the cultured cells using the RNeasy Mini kit (Qiagen, Hilden, Germany), and the concentration was determined using a Nanodrop ND-1000 spectrophotometer. A total of 5 mg of each RNA was converted to cDNA using the sprint RT complete-oligo (dT) 18 (Clontech, MountainView, Calif., www.clontech.com) according to the manufacturer's guide. The cDNA was quantified using the QuantiTect SYBR Green PCR Kit (Qiagen). The following reaction components were added to each investigated transcript to the indicated end-concentration: forward primer (5 pM), reverse primer (5 pM), and QuantiTect SYBR Green PCR Master mix. The 10 μl master-mix was added to a 0.1 ml tube, and 5 μl volume, containing 100 ng reverse transcribed total RNA, was added as polymerase chain reaction (PCR) template. The tubes were closed, centrifuged, and placed into the Corbett research RG-6000 real-time PCR machine (Corbett LifeScience, Sydney, Australia). The following primers were used: Bone marrow cells were obtained from the femurs and tibias of seven-week-old mice. The bone marrow suspension was added to plates along with macrophage colony stimulating factor (M-CSF; 30 ng/ml). […]

[7] = test system: OVX mice

Question: How did the “levels of functional SDF-1 in bone marrow” value ([1]; bone marrow supernatant, FIG. 2) turn out when `c1cc(CN2CCCNCCNCCCNCC2)ccc1CN1CCCNCCNCCCNCC1` [AMD3100, 1,1′-[1,4-Phenylenebis(methylene)]bis[1,4,8,1]-tetraazacyclotetradecanel] was run?
Answer: decreased

Question: And the “levels of functional SDF-1 in plasma” value ([1]; plasma, FIG. 3)?
Answer: increased

Question: And the “levels of osteoblast lineage-specific genes (Osteocalcin, PTHR1, Osterix, Runx2)” value [2]?
Answer: no significant differences

Question: And the “number of CFU cells in blood” value [3]?
Answer: significant increase

Question: And the “percentage of Lin-Sca-1+c-Kit+ (LSK) cells in bone marrow” value [4]?
Answer: decrease

Question: And the “bone density in micro-CT images of the distal femur” value ([5]; FIG. 8)?
Answer: increased bone density

Question: What about the “bone mineral density (BMD)” value ([5]; FIG. 9) of the same compound?
Answer: increase

Question: What about the “osteoclast differentiation (expression of genes associated with osteoclast differentiation)” value [6] of the same compound?
Answer: did not affect osteoclast differentiation

Question: And the “osteoblast number/bone surface [N.Ob/BS (/mm)]” value ([7]; H&E staining, AMD3100 treatment groups, FIG. 13)?
Answer: did not change significantly

Question: And the “number and size of TRAP+ active osteoclasts in the trabecular region” value ([7]; TRAP staining, AMD3100-treated OVX mice, FIG. 11)?
Answer: decrease

Question: What about the “osteoclast number/bone surface [N.Oc/BS (/mm)]” value ([7]; histomorphometry, AMD3100-treated vs PBS-treated OVX mice, FIG. 12) of the same compound?
Answer: decrease
